For data set [1], the system named is Mus musculus. Nature of the data set: Neurotoxicity in albino mouse minimal clonic seizure model assessed as minimal motor impairment at 100 mg/kg, ip after 4 hrs by rotorod test. It is filed as toxicity, organism-based. Further details: dose 100 mg/kg, route intraperitoneal. Conditions: in vivo.
For data set [2], the system named is Mus musculus. Nature of the data set: Neurotoxicity in albino mouse minimal clonic seizure model assessed as minimal motor impairment at 100 mg/kg, ip after 2 hrs by rotorod test. It is filed as toxicity, organism-based. Details: dose 100 mg/kg, route intraperitoneal. Conditions: in vivo. In general terms: The rotarod test checks motor coordination on a turning rod.

Data set [3] concerns Mus musculus. Kind of data set: Neurotoxicity in albino mouse minimal clonic seizure model assessed as minimal motor impairment at 100 mg/kg, ip after 1 hr by rotorod test. Details: dose 100 mg/kg, route intraperitoneal. The class given is toxicity, organism-based. Conditions: in vivo.
In data set [4] the test system is Mus musculus. Kind of data set: Neurotoxicity in albino mouse minimal clonic seizure model assessed as minimal motor impairment at 100 mg/kg, ip after 0.5 hrs by rotorod test. It is filed as toxicity, organism-based. Further details: dose 100 mg/kg, route intraperitoneal. Conditions: in vivo.
Data set [5] relates to Mus musculus. Nature of the data set: Neurotoxicity in albino mouse minimal clonic seizure model assessed as minimal motor impairment at 100 mg/kg, ip after 0.25 hrs by rotorod test. Conditions: in vivo. It is filed as toxicity, organism-based. Further details: dose 100 mg/kg, route intraperitoneal.
Data set [6] deals with Mus musculus. Nature of the data set: Anticonvulsant activity in albino mouse assessed as protection against 6 Hz psychomotor seizure at 100 mg/kg, ip after 4 hrs by minimal clonic seizure test. The class given is functional, organism-based. Further details: dose 100 mg/kg.
Data set [7] deals with Mus musculus. Nature of the data set: Anticonvulsant activity in albino mouse assessed as protection against 6 Hz psychomotor seizure at 100 mg/kg, ip after 2 hrs by minimal clonic seizure test. Details: dose 100 mg/kg. The class given is functional, organism-based.
In data set [8] the test system is Mus musculus. Kind of data set: Anticonvulsant activity in albino mouse assessed as protection against 6 Hz psychomotor seizure at 100 mg/kg, ip after 1 hr by minimal clonic seizure test. Further details: dose 100 mg/kg. The class given is functional, organism-based.
Data set [9] relates to Mus musculus. Nature of the data set: Anticonvulsant activity in albino mouse assessed as protection against 6 Hz psychomotor seizure at 100 mg/kg, ip after 0.5 hrs by minimal clonic seizure test. The class given is functional, organism-based. Further details: dose 100 mg/kg.
In data set [10] the test system is Mus musculus. Nature of the data set: Anticonvulsant activity in albino mouse assessed as protection against 6 Hz psychomotor seizure at 100 mg/kg, ip after 0.25 hrs by minimal clonic seizure test. The class given is functional, organism-based. Details: dose 100 mg/kg.
For another data set, the system named is Rattus norvegicus. Nature of the data set: Anticonvulsant activity in po dosed albino Sprague-Dawley rat assessed as protection against maximal electroshock-induced seizures after […] to 4 hrs. The class given is functional, organism-based. On the technique in general: In the maximal electroshock model the usual endpoint is tonic extension of the hind limbs.

In data set [11] the test system is Mus musculus. Kind of data set: Neurotoxicity in albino mouse assessed as minimal motor impairment at 100 mg/kg, ip after 4 hrs by rotorod test. It is filed as toxicity, organism-based. Details: dose 100 mg/kg, route intraperitoneal. Conditions: in vivo.
Data set [12] relates to Mus musculus. Kind of data set: Neurotoxicity in albino mouse assessed as minimal motor impairment at 100 mg/kg, ip after 1 hr by rotorod test. It is filed as toxicity, organism-based. Details: dose 100 mg/kg, route intraperitoneal. Conditions: in vivo.
Data set [13] has as its system Mus musculus. Kind of data set: Neurotoxicity in albino mouse assessed as minimal motor impairment at 100 mg/kg, ip after 0.5 hrs by rotorod test. The class given is toxicity, organism-based. Further details: dose 100 mg/kg, route intraperitoneal. Conditions: in vivo.
Data set [14] relates to Mus musculus. Kind of data set: Neurotoxicity in albino mouse assessed as loss of righting reflex at 100 mg/kg, ip after 0.25 hrs by rotorod test. It is filed as toxicity, organism-based. Details: dose 100 mg/kg, route intraperitoneal. Conditions: in vivo.
Data set [15] deals with Mus musculus. Kind of data set: Anticonvulsant activity in albino mouse assessed as protection against subcutaneous metrazole-induced seizures at 100 mg/kg, ip after 4 hrs. It is filed as functional, organism-based. Details: dose 100 mg/kg.
In data set [16] the test system is Mus musculus. Nature of the data set: Anticonvulsant activity in albino mouse assessed as protection against subcutaneous metrazole-induced seizures at 100 mg/kg, ip after 1 hr. It is filed as functional, organism-based. Further details: dose 100 mg/kg.
The subject of data set [17] is Mus musculus. Kind of data set: Anticonvulsant activity in albino mouse assessed as protection against subcutaneous metrazole-induced seizures at 100 mg/kg, ip after 0.5 hrs. The class given is functional, organism-based. Further details: dose 100 mg/kg.
For data set [18], the system named is Mus musculus. Kind of data set: Toxicity in subcutaneous metrazole treated albino mouse assessed as myoclonic jerks at 100 mg/kg, ip after 0.25 hrs. Details: dose 100 mg/kg. Conditions: in vivo, sc. It is filed as organism-based.
For data set [19], the system named is Mus musculus. Nature of the data set: Anticonvulsant activity in albino mouse assessed as protection against maximal electroshock-induced seizures at 100 mg/kg, ip after 4 hrs. It is filed as functional, organism-based. Details: dose 100 mg/kg.
The subject of data set [20] is Mus musculus. Nature of the data set: Anticonvulsant activity in albino mouse assessed as protection against maximal electroshock-induced seizures at 100 mg/kg, ip after 1 hr. The class given is functional, organism-based. Further details: dose 100 mg/kg.
Data set [21] deals with Mus musculus. Nature of the data set: Anticonvulsant activity in albino mouse assessed as protection against maximal electroshock-induced seizures at 100 mg/kg, ip after 0.5 hrs. The class given is functional, organism-based. Further details: dose 100 mg/kg.
Data set [22] concerns Mus musculus. Nature of the data set: Anticonvulsant activity in albino mouse assessed as protection against maximal electroshock-induced seizures at 100 mg/kg, ip after 0.25 hrs. Details: dose 100 mg/kg. The class given is functional, organism-based.

Consider one compound from ChEMBL document CHEMBL2440112, “Structure-activity relationships of the aromatic site in novel anticonvulsant pyrrolo[1,2-a]pyrazine derivatives” (Bioorg Med Chem Lett, 2013).

The source made the active and inactive calls. No cut-off for these calls is given here.

Consider `Cc1ccccc1[C@H]1C(=O)NC(=O)[C@@H]2CCCN12`, for which the Activity entry with Mus musculus [1], in the data set with Mus musculus [2], in the data set with Mus musculus [3], in the data set on Mus musculus [4], in the data set with Mus musculus [5] and in the data set on Mus musculus [11] was “Non-toxic” throughout. Further, the Activity entry in the data set on Mus musculus [12] was “Non-toxic”; in the data set with Mus musculus [13], “Non-toxic”; in the data set on Mus musculus [14] it was “Toxic”; with Mus musculus [18], “Toxic”. Besides, the outcome in the data set on Mus musculus [6], with Mus musculus [7], with Rattus norvegicus, in the data set with Mus musculus [15], in the data set with Mus musculus [16] and with Mus musculus [17] was inactive. The outcome in the data set with Mus musculus [19], with Mus musculus [20], in the data set on Mus musculus [21] and with Mus musculus [22] was inactive. The outcome in the data set on Mus musculus [8], with Mus musculus [9] and in the data set on Mus musculus [10] was Active.
